Laboratory results taken from patent US7429473B2, “Diacylglycerol acyltransferase genes, proteins, and uses thereof” (Michigan State University, priority 2003, dated 2008).

System: Euonymus alata diacylglycerol acetyltransferase (AcDAGAT), native enzyme activity in cell free homogenate of endosperm plus embryo
Assay: AcDAGAT assay with [1-14C]acetyl-CoA in cell free homogenate (CFH) of developing Euonymus alata seeds
Type: biochemical
Description: Characterization of acyltransferase activity by in vitro assays. Acyltransferase activity was assayed by incubating [^14C]acetyl-CoA with cell free extracts from developing Euonymus alata seeds and exogenous 1,2-diacylglycerol (DAG). Total lipids were extracted, radioactivity assayed, then the amount of label in the 1,2-diacyl-3-acetin fraction determined by TLC. There was a very high (greater than about 20-fold), largely soluble acetyl-CoA hydrolase activity that competed with the transferase for substrate.
All procedures were carried out on ice or at 4° C. Frozen embryo and endosperm tissue was added to two volumes of chilled buffer containing 0.3 M sucrose, 10 mM NaF, 5 mM MgCl2, 2 mM dithiothreitol, 1 mM EDTA and 40 mM Hepes -NaOH (pH 7.4), homogenized, and filtered through two layers of Miracloth. The residue was rehomogenized in two more volumes of buffer and filtered. The filtrates were combined and constitute the cell free homogenate (CFH). The CFH was frozen and stored at −70° C. until used and typically contained 12-17 mg protein/ml. Protein concentrations were estimated using the Bio-Rad protein assay, which is based on the Bradford method (1976), using bovine serum albumin as the standard.
The standard (Ac)DAGAT assay contained [1-^14C]acetyl-CoA (100 μM, 200,000 d.p.m.) plus 140 μl of homogenization buffer in a total volume of 200 μl. 1,2-dioleoyl-sn-glycerol (50 μg, 0.4 mM) was added as 1 μl of ethanol solution. The assay was initiated by adding 20 μl of CFH. The reaction was run at room temperature (25° C.) for 1S min and terminated by the addition of hot isopropanol (1 ml). Lipids were extracted with hexane and isopropanol as described by Hara and Radin (1978). The [^14C]lipid residue was dissolved in hexane and an aliquot assayed for radioactivity by liquid scintillation counting. The standard long-chain DAGAT assay contained 20 μM [1-^14C]palmitoyl-CoA and 20-40 μl of CFH and was run for 30 minutes: all other aspects were as for acetyl DAGAT assays.
Incubation of cell free homogenates (CFH) from developing Euonymus alata endosperm plus embryo tissues with [^14C]acetyl-CoA produced labeled lipids. […] Long-chain TAG elutes ahead of Ac-TAG in this solvent system. When this labeled band was recovered and analyzed by C 18 reversed-phase TLC, the radioactivity migrated with the mass bands corresponding to the major Ac-TAG molecular species, namely C16/C18 and C18/C18. When a unique exogenous diacylglycerol, 1,2-dihexanoyl-sn-glycerol, was added to the assays, a novel band appeared that co-chromatographed with the synthetic 3-acetyl-1,2-dihexanoin standard in both normal and reverse phase TLC systems. The migration of the standard was confirmed by GC analysis of recovered fractions from the TLC plates. […]

Row | SMILES | Km (Lineweaver-Burke reciprocal plot, CFH, 25° C.) | Vmax (estimate from acetyl-CoA concentration curve) (acetyl-CoA concentration curve, cell free extracts of developing seeds) | Vmax (acetyl-CoA varied, Lineweaver-Burke reciprocal plot, CFH) | average enhancement of AcDAGAT activity by exogenous sn-1,2-diolein (0.1-1.2 mM sn-1,2-diolein added, endogenous DAG present)
1 | CC(=O)SCCNC(=O)CCNC(=O)[C@H](O)C(C)(C)COP(=O)(O)OP(=O)(O)OC[C@H]1O[C@@H](n2cnc3c(N)ncnc32)[C@H](O)[C@@H]1OP(=O)(O)O [acetyl-CoA] | 100 µM | 120 nmoles/hour/gram fresh weight seed tissue | 2.5 nmoles/min/gfw | –
2 | CCCCCCCC/C=C\CCCCCCCC(=O)OC[C@H](CO)OC(=O)CCCCCCC/C=C\CCCCCCCC [sn-1,2-diolein, 1,2-dioleoyl-sn-glycerol] | – | – | – | 30%
